IC50 data for 31 molecules are collected here from patent US10329302B2, “Bicyclic-fused heteroaryl or aryl compounds” (Pfizer Inc., priority 2014, dated 2019).

Like-named read-outs stand apart in the source and are kept apart here.

Assay [1] has as its system R848-induced TNFα production by human peripheral blood mononuclear cells (PBMCs). In words: R848 Induced TNFα in Human PBMC Assay. The assay is classed as cell-based.
From the text: This protocol is for R848-induced TNFα production by human peripheral blood mononuclear cells (PBMCs). […] The assay is used to assess cell-based potency of small molecule inhibitors of IRAK4 in the absence of serum.
The PBMCs in the interphase layer were collected and washed with PBS via centrifugation multiple times until the supernatant is clear. The purified PBMCs were re-suspended in RPMI (Roswell Park Memorial Institute) media (Sigma-Aldrich).
For the assay, a compound dilution plate containing a top concentration of 4 mM compound in DMSO was serially diluted 4-fold for 11 times. 250 nL of the compound dilution plate was spotted into a 384-well, flat bottom with lid, TC-treated, black with clear bottom, sterile, polystyrene plate (Corning Life Sciences).
10 μL of anti-TNFα antibody labeled with MSD SULFO-TAG at 50 μg/mL was added to each well and allowed to incubate overnight at 4° C.
In assay [2] the target is human IRAK4 FL (Full Length) (Homo sapiens (Human), UniProt Q9NWZ3). In words: IRAK4 Enzymatic DELFIA Assay, Protocol A. The assay is classed as biochemical.
human IRAK4 FL (Full Length), sequence (Q9NWZ3 whole entry): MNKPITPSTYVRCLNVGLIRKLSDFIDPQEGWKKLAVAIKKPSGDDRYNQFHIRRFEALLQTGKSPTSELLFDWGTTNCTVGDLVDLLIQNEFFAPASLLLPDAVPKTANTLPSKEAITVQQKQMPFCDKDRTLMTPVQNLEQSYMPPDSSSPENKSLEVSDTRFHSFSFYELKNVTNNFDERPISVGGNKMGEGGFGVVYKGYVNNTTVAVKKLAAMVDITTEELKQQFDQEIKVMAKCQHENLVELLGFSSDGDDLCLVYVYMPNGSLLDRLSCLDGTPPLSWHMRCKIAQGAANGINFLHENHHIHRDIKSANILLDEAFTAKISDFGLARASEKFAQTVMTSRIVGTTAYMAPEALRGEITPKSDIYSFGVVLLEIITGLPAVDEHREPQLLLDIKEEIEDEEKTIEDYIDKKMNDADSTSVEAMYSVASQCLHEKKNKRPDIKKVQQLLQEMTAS
Where [3] appears, read: Homo sapiens, PBMC, 3 h, read-out: R848-induced TNFa PBMC IC50 (nM).
Setting [4] is: human IRAK4 FL, 0.6 mM ATP (KM), read-out: IRAK4 DELFIA Protocol A IC50.
The mark [5] stands for this setting: human PBMC, absence of serum, 3 hours, read-out: R848-induced TNFa PBMC IC50.

For orientation: IC50 means the concentration needed to halve the response being measured. With `COc1cc2c(OC[C@H]3NC(=O)[C@@H](OC)[C@H]3C)nccc2cc1C(N)=O` [Example 349, 7-methoxy-1-{[(2S,3S,4S)-4-methoxy-3-methyl-5-oxopyrrolidin-2-yl]methoxy}isoquinoline-6-carboxamide], the figures for the IC50 in assay [1] (setting [3]) and in assay [2] (setting [4]) were 9460 nM and 2.96 µM, respectively.

In the case of `CC(C)Oc1cc2c(OC[C@@H]3CNC(=O)N3)nccc2cc1C(N)=O` [Example 202, 1-{[(4S)-2-oxoimidazolidin-4-yl]methoxy}-7-(propan-2-yloxy)isoquinoline-6-carboxamide], the IC50 came to 922 nM in assay [1] (setting [3]) and 0.085 µM in assay [2] (setting [4]).

With `COc1cc2c(OC[C@@H]3C[C@H](F)C(=O)N3)nccc2cc1C(N)=O` [Example 252, 1-{[(2S,4S)-4-fluoro-5-oxopyrrolidin-2-yl]methoxy}-7-methoxyisoquinoline-6-carboxamide], the IC50 stood at 40 nM in assay [1] (setting [3]) and 0.0009 µM in assay [2] (setting [4]).

For `COc1cc2c(OC[C@H]3NC(=O)[C@]4(F)C[C@H]34)nccc2cc1C(N)=O` [Example 317, 1-{[(1R,2S,5S)-5-fluoro-4-oxo-3-azabicyclo[3.1.0]hex-2-yl]methoxy}-7-methoxyisoquinoline-6-carboxamide], the IC50 in assay [1] (setting [5]) amounted to 22 nM; in assay [2], 0.0006 µM.

For `CC(C)Oc1cc2c(OC[C@@H]3C[C@@](F)(CO)C(=O)N3)nccc2cc1C(N)=O` [Example 164, 1-{[(2S,4R)-4-fluoro-4-(hydroxymethyl)-5-oxopyrrolidin-2-yl]methoxy}-7-(propan-2-yloxy)isoquinoline-6-carboxamide], the figures for the IC50 in assay [1] (setting [3]) and in assay [2] (setting [4]) were 116 nM and 0.0017 µM, respectively.

Take `COc1cc2c(OC[C@H]3NC(=O)[C@@H]4[C@@H](C(F)F)[C@@H]43)nccc2cc1C(N)=O` [Example 320, 1-{[(1R,2S,5S)-6-(difluoromethyl)-4-oxo-3-azabicyclo[3.1.0]hex-2-yl]methoxy}-7-methoxyisoquinoline-6-carboxamide]: the results for the IC50 in assay [1] (setting [3]) and in assay [2] (setting [4]) were 11 nM and 0.0008 µM, respectively.

Turning to `CC(C)Oc1cc2c(OCC3(CO)CCC(=O)N3)nccc2cc1C(N)=O` (stereo not shown) [Example 147, 1-{[2-(hydroxymethyl)-5-oxopyrrolidin-2-yl]methoxy}-7-(propan-2-yloxy)isoquinoline-6-carboxamide], the IC50 in assay [1] (setting [3]) stood at 1160 nM; in assay [2] it was 0.059 µM.

In the case of `COC[C@H]1[C@@H](COc2nccc3cc(C(N)=O)c(OC)cc23)NC(=O)C1(F)F` [Example 347, 1-{[(2S,3R)-4,4-difluoro-3-(methoxymethyl)-5-oxopyrrolidin-2-yl]methoxy}-7-methoxyisoquinoline-6-carboxamide], the values for the IC50 in assay [1] (setting [3]) and in assay [2] (setting [4]) were 27 nM and 0.0006 µM, respectively.

Turning to `COC[C@@H]1[C@H](F)C(=O)N[C@@H]1COc1nccc2cc(C(N)=O)c(OC)cc12` [Example 348, 1-{[(2S,3R,4S)-4-fluoro-3-(methoxymethyl)-5-oxopyrrolidin-2-yl]methoxy}-7-methoxyisoquinoline-6-carboxamide], the results for the concentration for half-maximal inhibition (IC50) in assay [1] (setting [3]) and in assay [2] (setting [4]) were 42 nM and 0.0007 µM, respectively.

`CC(C)Oc1cc2c(OC[C@@H]3CC(F)C(=O)N3)nccc2cc1C(N)=O` (stereo partly drawn) [Example 112, 1-{[(2S)-4-fluoro-5-oxopyrrolidin-2-yl]methoxy}-7-(propan-2-yloxy)isoquinoline-6-carboxamide]: the IC50 came out at 50 nM in assay [1] (setting [3]) and 0.001 µM in assay [2] (setting [4]).

With `COc1cc2c(OC[C@H]3NC(=O)CC34CC4)nccc2cc1C(N)=O` [Example 330, 7-methoxy-1-{[(4S)-6-oxo-5-azaspiro[2.4]hept-4-yl]methoxy}isoquinoline-6-carboxamide], the IC50 in assay [1] (setting [3]) came to 134 nM; in assay [2] (setting [4]), 0.014 µM.

As for `CCOc1cc2c(OC[C@H]3NC(=O)[C@@H]4C[C@H]34)nccc2cc1C(N)=O` [Example 282, 7-ethoxy-1-{[(1S,2S,5R)-4-oxo-3-azabicyclo[3.1.0]hex-2-yl]methoxy}isoquinoline-6-carboxamide], the IC50 worked out at 191 nM in assay [1] (setting [3]) and 0.011 µM in assay [2] (setting [4]).

For `[2H]C([2H])([2H])C([2H])([2H])[C@@H]1[C@H](F)C(=O)N[C@@H]1COc1nccc2cc(C(N)=O)c(OC)cc12` [Example 344, 1-{[(2S,3S,4S)-3-(pentadeutero)ethyl-4-fluoro-5-oxopyrrolidin-2-yl]methoxy}-7-methoxyisoquinoline-6-carboxamide], in assay [1] (setting [5]), the IC50 is 0.5 nM.

Regarding `COc1cc2c(OC[C@@H]3C[C@@](F)(CC(F)(F)F)C(=O)N3)cccc2cc1C(N)=O` [Example 240, 5-{[(2S,4R)-4-fluoro-5-oxo-4-(2,2,2-trifluoroethyl)pyrrolidin-2-yl]methoxy}-3-methoxynaphthalene-2-carboxamide], in assay [1] (setting [5]), the IC50 was 24 nM.

Regarding `COc1cc2c(OC[C@H]3NC(=O)[C@@H]4CC[C@H]34)nccc2cc1C(N)=O` [Example 308, 7-methoxy-1-{[(1S,2S,5R)-4-oxo-3-azabicyclo[3.2.0]hept-2-yl]methoxy}isoquinoline-6-carboxamide], the IC50 in assay [1] (setting [3]) was 134 nM.

`COc1cc2c(OC[C@@H]3NC(=O)[C@H](F)[C@@H]3C)nccc2cc1C(N)=O` [Example 288, 1-{[(2R,3R,4R)-4-fluoro-3-methyl-5-oxopyrrolidin-2-yl]methoxy}-7-methoxyisoquinoline-6-carboxamide]: the concentration for half-maximal inhibition (IC50) in assay [1] (setting [3]) stood at 1810 nM.

For `COc1cc2c(OC[C@H]3NC(=O)[C@@H](F)[C@H]3C(C)O)nccc2cc1C(N)=O` (stereo partly drawn) [Example 198, 1-{[(2S,3R,4S)-4-fluoro-3-(1-hydroxyethyl)-5-oxopyrrolidin-2-yl]methoxy}-7-methoxyisoquinoline-6-carboxamide], the IC50 in assay [1] (setting [5]) was 715 nM.

In the case of `CC[C@@H]1[C@@H](COc2nccc3cc(C(N)=O)c(OC)cc23)NC(=O)[C@@H]1F` [Example 346, 1-{[(2S,3R,4R)-3-ethyl-4-fluoro-5-oxopyrrolidin-2-yl]methoxy}-7-methoxyisoquinoline-6-carboxamide], the IC50 in assay [1] (setting [5]) was found to be 150 nM.

Regarding `[2H][C@]1(CC)[C@@H](COc2nccc3cc(C(N)=O)c(OC)cc23)NC(=O)[C@@]1([2H])F` [Example 374, 1-{[(2S,3S,4S)-3-ethyl-4-fluoro-5-oxo(3,4-bisdeutero)pyrrolidin-2-yl]methoxy}-7-methoxyisoquinoline-6-carboxamide], in assay [1] (setting [5]), the IC50 was 1.2 nM.

Consider `COc1cc2c(OC[C@@H]3C[C@@](F)(CO)C(=O)N3)cccc2cc1C(N)=O` [Example 207, 5-{[(2S,4R)-4-fluoro-4-(hydroxymethyl)-5-oxopyrrolidin-2-yl]methoxy}-3-methoxynaphthalene-2-carboxamide], for which the half-maximal inhibitory concentration (IC50) in assay [1] (setting [5]) came out at 41 nM.

As for `CCOc1cc2c(OC[C@@H]3C[C@](C)(F)C(=O)N3)ccnc2cc1C(N)=O` [Example 287, 6-ethoxy-4-{[(2S,4S)-4-fluoro-4-methyl-5-oxopyrrolidin-2-yl]methoxy}quinoline-7-carboxamide], in assay [1] (setting [3]), the IC50 came to 2300 nM.

On to `COc1cc2c(OC[C@@H]3NC(=O)C[C@@H]3C)nccc2cc1C(N)=O` [Example 277, 7-methoxy-1-{[(2R,3S)-3-methyl-5-oxopyrrolidin-2-yl]methoxy}isoquinoline-6-carboxamide], for which, in assay [1] (setting [3]), the IC50 worked out at 4420 nM.

As to `COc1cc2c(OC[C@H]3NC(=O)C[C@H]3C3CC3)nccc2cc1C(N)=O` [Example 305, 1-{[(2S,3S)-3-cyclopropyl-5-oxopyrrolidin-2-yl]methoxy}-7-methoxyisoquinoline-6-carboxamide], the IC50 in assay [1] (setting [3]) was found to be 57 nM.

Consider `COc1cc2c(OC[C@@H]3C[C@@H](C4CCOCC4)C(=O)N3)nccc2cc1C(N)=O` [Example 286, 7-methoxy-1-{[(2S,4S)-5-oxo-4-(tetrahydro-2H-pyran-4-yl)pyrrolidin-2-yl]methoxy}isoquinoline-6-carboxamide], for which the IC50 in assay [1] (setting [3]) came out at 7020 nM.

Take `CC[C@@H]1[C@H]2C(=O)N[C@H](COc3nccc4cc(C(N)=O)c(OC)cc34)[C@@H]12` [Example 300, 1-{[(1S,2S,5R)-6-ethyl-4-oxo-3-azabicyclo[3.1.0]hex-2-yl]methoxy}-7-methoxyisoquinoline-6-carboxamide]: in assay [1] (setting [3]), the IC50 amounted to 931 nM.

In the case of `CCOc1cc2c(OC[C@H]3NC(=O)[C@@H](F)[C@H]3C)nccc2cc1C(N)=O` [Example 283, 7-ethoxy-1-{[(2S,3S,4S)-4-fluoro-3-methyl-5-oxopyrrolidin-2-yl]methoxy}isoquinoline-6-carboxamide], the IC50 in assay [1] (setting [3]) is 27 nM.

In the case of `COc1cc2c(OC[C@H]3NC(=O)[C@@H](F)[C@@H]3C)nccc2cc1C(N)=O` [Example 203, 1-{[(2S,3R,4S)-4-fluoro-3-methyl-5-oxopyrrolidin-2-yl]methoxy}-7-methoxyisoquinoline-6-carboxamide], in assay [1] (setting [3]), the IC50 amounted to 47 nM.

Consider `COc1cc2c(OC[C@H]3NC(=O)[C@@H]4C[C@]34C)nccc2cc1C(N)=O` [Example 295, 7-methoxy-1-{[(1S,2S,5R)-1-methyl-4-oxo-3-azabicyclo[3.1.0]hex-2-yl]methoxy}isoquinoline-6-carboxamide], for which the IC50 in assay [1] (setting [3]) came to 67 nM.

`COc1cc2c(OC[C@H]3NC(=O)[C@@H]4C(CCF)C43)nccc2cc1C(N)=O` (stereo in doubt) [Example 306, 1-(((1R,2S,5R,6R)-6-(2-fluoroethyl)-4-oxo-3-azabicyclo[3.1.0]hexan-2-yl)methoxy)-7-methoxyisoquinoline-6-carboxamide]: the IC50 in assay [1] (setting [3]) came out at 4060 nM.

On to `CC[C@@H]1C2[C@@H](COc3nccc4cc(C(N)=O)c(OC)cc34)NC(=O)[C@@H]21` (stereo in doubt) [Example 301, 1-(((1R,2S,5R,6R)-6-ethyl-4-oxo-3-azabicyclo[3.1.0]hexan-2-yl)methoxy)-7-methoxyisoquinoline-6-carboxamide], for which the IC50 in assay [1] (setting [3]) came to 4050 nM.

Take `CC[C@]1(O)[C@H](F)C(=O)N[C@@H]1COc1nccc2cc(C(N)=O)c(OC)cc12` [Example 196, 1-{[(2R,3R,4S)-3-ethyl-4-fluoro-3-hydroxy-5-oxopyrrolidin-2-yl]methoxy}-7-methoxyisoquinoline-6-carboxamide]: the IC50 in assay [1] (setting [5]) came out at 11 nM.
